# Laboratory results as given in patent US5684140A, “Dyes for ink jet printing” (Ilford A.G., priority 1995, dated 1997).
# Assay: Water solubility of the dyes (excess dye heated at 50 °C in water, cooled to 20 °C, filtered, determined spectroscopically)
# Format: physicochemical
# Conditions: after heating at 50 °C for one hour
# Protocol: The solubilities of the dyes according to the invention were determined as follows:
# An excess of dye was heated at 50° C. in water with stirring for one hour. The mixture was then cooled down to 20 ° C. and filtered, and the dye content of the clear solution was determined spectroscopically.
row,Compound,solubility [g per 100 ml]
1,"CCN(c1nc(Cl)nc(Nc2cc(NC(C)=O)c(N=Nc3cc(S(=O)(=O)O)c4cccc(S(=O)(=O)O)c4c3)cc2OC)n1)c1cc(S(=O)(=O)O)ccc1C [dye 5, reference compound]",17
2,"CCN(c1nc(Cl)nc(Nc2ccc(N=Nc3cc4c(S(=O)(=O)O)cc(S(=O)(=O)O)cc4cc3S(=O)(=O)O)c(NC(N)=O)c2)n1)c1cc(S(=O)(=O)O)ccc1C [dye 1, reference compound]",11
3,COc1cc(N=Nc2cc(S(=O)(=O)O)c3cccc(S(=O)(=O)O)c3c2)c(C)cc1Nc1nc(NCCS(=O)(=O)O)nc(SCC(=O)O)n1 [Compound 102],54

# Other lines, results leading:
row,solubility [g per 100 ml],Compound
1,40,COc1cc(N=Nc2cc(S(=O)(=O)O)c3cccc(S(=O)(=O)O)c3c2)c(C)cc1Nc1nc(NCCS(=O)(=O)O)nc(SCCO)n1 [Compound 101]
2,31,COc1cc(N=Nc2cc(S(=O)(=O)O)c3cccc(S(=O)(=O)O)c3c2)c(C)cc1Nc1nc(O)nc(NCCS(=O)(=O)O)n1 [Compound 100]
